{"source": "paper PMC11012124", "about": "“Synthesis of Novel Triazine-Based Chalcones and 8,9-dihydro-7H-pyrimido[4,5-b][1,4]diazepines as Potential Leads in the Search of Anticancer, Antibacterial and Antifungal Agents” (International Journal of Molecular Sciences, 2024)", "key": {"HOP-92": {"tested_on": "HOP-92", "assay": "cells", "conditions": "Homo sapiens, HOP-92, 48 h"}, "MDA-MB-231/ATCC": {"tested_on": "MDA-MB-231/ATCC", "assay": "cells", "conditions": "Homo sapiens, MDA-MB-231, 48 h"}, "MCF7": {"tested_on": "MCF7", "assay": "cells", "conditions": "Homo sapiens, MCF7, 48 h"}, "SK-MEL-5": {"tested_on": "SK-MEL-5", "assay": "cells", "conditions": "Homo sapiens, SK-MEL-5, 48 h"}, "UACC-257": {"tested_on": "UACC-257", "assay": "cells", "conditions": "Homo sapiens, UACC-257, 48 h"}, "TK-10": {"tested_on": "TK-10", "assay": "cells", "conditions": "Homo sapiens, TK-10, 48 h"}, "HCT-15": {"tested_on": "HCT-15", "assay": "cells", "conditions": "Homo sapiens, HCT-15, 48 h"}, "HL-60(TB)": {"tested_on": "HL-60(TB)", "assay": "cells", "conditions": "Homo sapiens, HL-60, 48 h"}, "LOX IMVI": {"tested_on": "LOX IMVI", "assay": "cells", "conditions": "Homo sapiens, 48 h"}, "SF-295": {"tested_on": "SF-295", "assay": "cells", "conditions": "Homo sapiens, SF-295, 48 h"}, "HCT-116": {"tested_on": "HCT-116", "assay": "cells", "conditions": "Homo sapiens, HCT-116, 48 h"}, "SF-539": {"tested_on": "SF-539", "assay": "cells", "conditions": "Homo sapiens, SF-539, 48 h"}, "A498": {"tested_on": "A498", "assay": "cells", "conditions": "Homo sapiens, A498, 48 h"}, "KM12": {"tested_on": "KM12", "assay": "cells", "conditions": "Homo sapiens, KM12, 48 h"}, "HT29": {"tested_on": "HT29", "assay": "cells", "conditions": "Homo sapiens, HT-29, 48 h"}, "NCI-H522": {"tested_on": "NCI-H522", "assay": "cells", "conditions": "Homo sapiens, NCI-H522, 48 h"}, "UO-31": {"tested_on": "UO-31", "assay": "cells", "conditions": "Homo sapiens, UO-31, 48 h"}, "T-47D": {"tested_on": "T-47D", "assay": "cells", "conditions": "Homo sapiens, T47D, 48 h"}, "M14": {"tested_on": "M14", "assay": "cells", "conditions": "Homo sapiens, M14, 48 h"}, "SN12C": {"tested_on": "SN12C", "assay": "cells", "conditions": "Homo sapiens, 48 h"}, "OVCAR-5": {"tested_on": "OVCAR-5", "assay": "cells", "conditions": "Homo sapiens, OVCAR-5, 48 h"}, "60 cancer cell lines": {"tested_on": "60 cancer cell lines", "assay": "NCI-60 one-dose screen (10 μM)", "assay_type": "cell-based", "conditions": "Homo sapiens; one dose of 10 μM, mean over 60 cancer cell lines; read-out: Mean Growth Percent (MGP)", "from_the_text": "Additionally, the mean of the growth percentages (MGP) of each compound against all the 60 cancer cell lines is also reported, which is used as one of the selection criteria to continue with tests at five concentration doses."}, "SNB-75": {"tested_on": "SNB-75", "assay": "cells", "conditions": "Homo sapiens, SNB-75, 48 h"}, "MOLT-4": {"tested_on": "MOLT-4", "assay": "cells", "conditions": "Homo sapiens, MOLT-4, 48 h"}, "U251": {"tested_on": "U251", "assay": "cells", "conditions": "Homo sapiens, U-251, 48 h"}, "RPMI-8226": {"tested_on": "RPMI-8226", "assay": "cells", "conditions": "Homo sapiens, RPMI-8226, 48 h"}, "SK-OV-3": {"tested_on": "SK-OV-3", "assay": "cells", "conditions": "Homo sapiens, SK-OV-3, 48 h"}, "OVCAR-4": {"tested_on": "OVCAR-4", "assay": "cells", "conditions": "Homo sapiens, OVCAR-4, 48 h"}, "DU-145": {"tested_on": "DU-145", "assay": "cells", "conditions": "Homo sapiens, DU-145, 48 h"}, "COLO 205": {"tested_on": "COLO 205", "assay": "cells", "conditions": "Homo sapiens, COLO 205, 48 h"}, "786-0": {"tested_on": "786-0", "assay": "cells", "conditions": "Homo sapiens, 786-0, 48 h"}, "NCI-H23": {"tested_on": "NCI-H23", "assay": "cells", "conditions": "Homo sapiens, NCI-H23, 48 h"}, "NCI-H226": {"tested_on": "NCI-H226", "assay": "cells", "conditions": "Homo sapiens, NCI-H226, 48 h"}, "SK-MEL-2": {"tested_on": "SK-MEL-2", "assay": "cells", "conditions": "Homo sapiens, SK-MEL-2, 48 h"}, "NCI-H460": {"tested_on": "NCI-H460", "assay": "cells", "conditions": "Homo sapiens, NCI-H460, 48 h"}, "MDA-MB-468": {"tested_on": "MDA-MB-468", "assay": "cells", "conditions": "Homo sapiens, MDA-MB-468, 48 h"}, "A549/ATCC": {"tested_on": "A549/ATCC", "assay": "cells", "conditions": "Homo sapiens, A549, 48 h"}}, "data": [{"smiles": "COc1cc(/C=C/C(=O)c2ccc(C)cc2)ccc1Oc1nc(Nc2ccc(F)cc2)nc(N(C)C)n1", "note": "[21b]", "values": [{"measurement": "GI50", "setting": "HOP-92", "value": 4.57, "unit": "µM"}, {"measurement": "CC50", "setting": "HOP-92; read-out: LC50", "value": "> 100", "unit": "µM"}, {"measurement": "GI50", "setting": "MDA-MB-231/ATCC", "value": 5.24, "unit": "µM"}, {"measurement": "CC50", "setting": "MDA-MB-231/ATCC; read-out: LC50", "value": 50.8, "unit": "µM"}, {"measurement": "GI50", "setting": "MCF7", "value": 3.57, "unit": "µM"}, {"measurement": "CC50", "setting": "MCF7; read-out: LC50", "value": "> 100", "unit": "µM"}, {"measurement": "GI50", "setting": "SK-MEL-5", "value": 5.14, "unit": "µM"}, {"measurement": "CC50", "setting": "SK-MEL-5; read-out: LC50", "value": 78.5, "unit": "µM"}, {"measurement": "GI50", "setting": "UACC-257", "value": 8.76, "unit": "µM"}, {"measurement": "CC50", "setting": "UACC-257; read-out: LC50", "value": "> 100", "unit": "µM"}, {"measurement": "GI50", "setting": "TK-10", "value": 18.2, "unit": "µM"}, {"measurement": "CC50", "setting": "TK-10; read-out: LC50", "value": "> 100", "unit": "µM"}, {"measurement": "GI50", "setting": "HCT-15", "value": 4.73, "unit": "µM"}, {"measurement": "CC50", "setting": "HCT-15; read-out: LC50", "value": 43.4, "unit": "µM"}, {"measurement": "GI50", "setting": "HL-60(TB)", "value": 19.1, "unit": "µM"}, {"measurement": "CC50", "setting": "HL-60(TB); read-out: LC50", "value": "> 100", "unit": "µM"}, {"measurement": "GI50", "setting": "LOX IMVI", "value": 1.84, "unit": "µM"}, {"measurement": "CC50", "setting": "LOX IMVI; read-out: LC50, LOX IMVI, 48 h", "value": 6.69, "unit": "µM"}, {"measurement": "GI50", "setting": "SF-295", "value": 8.61, "unit": "µM"}, {"measurement": "CC50", "setting": "SF-295; read-out: LC50", "value": "> 100", "unit": "µM"}, {"measurement": "GI50", "setting": "HCT-116", "value": 2.28, "unit": "µM"}, {"measurement": "CC50", "setting": "HCT-116; read-out: LC50", "value": 24.4, "unit": "µM"}, {"measurement": "GI50", "setting": "SF-539", "value": 7.64, "unit": "µM"}, {"measurement": "CC50", "setting": "SF-539; read-out: LC50, SF-539, 48 h", "value": 44.9, "unit": "µM"}, {"measurement": "GI50", "setting": "A498", "value": 41.8, "unit": "µM"}, {"measurement": "CC50", "setting": "A498; read-out: LC50", "value": "> 100", "unit": "µM"}, {"measurement": "GI50", "setting": "KM12", "value": 19.3, "unit": "µM"}, {"measurement": "CC50", "setting": "KM12; read-out: LC50", "value": "> 100", "unit": "µM"}, {"measurement": "GI50", "setting": "HT29", "value": 8.15, "unit": "µM"}, {"measurement": "CC50", "setting": "HT29; read-out: LC50", "value": "> 100", "unit": "µM"}, {"measurement": "GI50", "setting": "NCI-H522", "value": 9.76, "unit": "µM"}, {"measurement": "CC50", "setting": "NCI-H522; read-out: LC50", "value": "> 100", "unit": "µM"}, {"measurement": "GI50", "setting": "UO-31", "value": 4.2, "unit": "µM"}, {"measurement": "CC50", "setting": "UO-31; read-out: LC50", "value": "> 100", "unit": "µM"}, {"measurement": "GI50", "setting": "T-47D", "value": 3.57, "unit": "µM"}, {"measurement": "CC50", "setting": "T-47D; read-out: LC50", "value": "> 100", "unit": "µM"}, {"measurement": "GI50", "setting": "M14", "value": 14.7, "unit": "µM"}, {"measurement": "CC50", "setting": "M14; read-out: LC50", "value": "> 100", "unit": "µM"}, {"measurement": "GI50", "setting": "SN12C", "value": 3.89, "unit": "µM"}, {"measurement": "CC50", "setting": "SN12C; read-out: LC50", "value": 73, "unit": "µM"}, {"measurement": "GI50", "setting": "OVCAR-5", "value": 16.5, "unit": "µM"}, {"measurement": "CC50", "setting": "OVCAR-5; read-out: LC50", "value": "> 100", "unit": "µM"}, {"measurement": "activity at 10 µM", "setting": "60 cancer cell lines", "value": 39, "unit": "%"}, {"measurement": "GI50", "setting": "SNB-75", "value": 15.4, "unit": "µM"}, {"measurement": "CC50", "setting": "SNB-75; read-out: LC50", "value": "> 100", "unit": "µM"}, {"measurement": "GI50", "setting": "MOLT-4", "value": 2.8, "unit": "µM"}, {"measurement": "CC50", "setting": "MOLT-4; read-out: LC50", "value": "> 100", "unit": "µM"}, {"measurement": "GI50", "setting": "U251; U251, 48 h", "value": 3.32, "unit": "µM"}, {"measurement": "CC50", "setting": "U251; read-out: LC50", "value": "> 100", "unit": "µM"}, {"measurement": "GI50", "setting": "RPMI-8226", "value": 3, "unit": "µM"}, {"measurement": "CC50", "setting": "RPMI-8226; read-out: LC50", "value": "> 100", "unit": "µM"}, {"measurement": "GI50", "setting": "SK-OV-3", "value": 48.9, "unit": "µM"}, {"measurement": "CC50", "setting": "SK-OV-3; read-out: LC50", "value": "> 100", "unit": "µM"}, {"measurement": "GI50", "setting": "OVCAR-4", "value": 7.94, "unit": "µM"}, {"measurement": "CC50", "setting": "OVCAR-4; read-out: LC50", "value": "> 100", "unit": "µM"}, {"measurement": "GI50", "setting": "DU-145", "value": 25.8, "unit": "µM"}, {"measurement": "CC50", "setting": "DU-145; read-out: LC50", "value": "> 100", "unit": "µM"}, {"measurement": "GI50", "setting": "COLO 205", "value": 41.7, "unit": "µM"}, {"measurement": "CC50", "setting": "COLO 205; read-out: LC50", "value": "> 100", "unit": "µM"}, {"measurement": "GI50", "setting": "786-0", "value": 13.3, "unit": "µM"}, {"measurement": "CC50", "setting": "786-0; read-out: LC50", "value": "> 100", "unit": "µM"}, {"measurement": "GI50", "setting": "NCI-H23", "value": 5.52, "unit": "µM"}, {"measurement": "CC50", "setting": "NCI-H23; read-out: LC50", "value": "> 100", "unit": "µM"}, {"measurement": "GI50", "setting": "NCI-H226", "value": 5.22, "unit": "µM"}, {"measurement": "CC50", "setting": "NCI-H226; read-out: LC50", "value": 49.1, "unit": "µM"}, {"measurement": "GI50", "setting": "SK-MEL-2", "value": 8.83, "unit": "µM"}, {"measurement": "CC50", "setting": "SK-MEL-2; read-out: LC50", "value": "> 100", "unit": "µM"}, {"measurement": "GI50", "setting": "NCI-H460", "value": 12.1, "unit": "µM"}, {"measurement": "CC50", "setting": "NCI-H460; read-out: LC50", "value": "> 100", "unit": "µM"}, {"measurement": "GI50", "setting": "MDA-MB-468", "value": 4.64, "unit": "µM"}, {"measurement": "CC50", "setting": "MDA-MB-468; read-out: LC50", "value": "> 100", "unit": "µM"}, {"measurement": "GI50", "setting": "A549/ATCC", "value": 45.8, "unit": "µM"}, {"measurement": "CC50", "setting": "A549/ATCC; read-out: LC50", "value": "> 100", "unit": "µM"}]}]}
